Reference: patent US10329309B2, “3-(3H-imidazo[4,5-B]pyridin-2-yl)-1H-pyrazolo[4,3-B]pyridines and therapeutic uses thereof” (Samumed, LLC, priority 2015, dated 2019)

Columns and labels:
[1] = tested on: primary human fibroblasts derived from IPF patients (LL29 cells), α-smooth muscle actin (αSMA); assay: Inhibition of the fibrotic process: TGF-β1-treated primary human fibroblasts from IPF patients, αSMA staining; format: cell-based; conditions: Fibroblast, 96 h, 4 days; for EC50: LL29 fibroblasts from IPF patients, TGF-β1 20 ng/mL, inhibition of fibrotic process; for inhibition at 10 µM: LL29 fibroblasts, TGF-β1 treated, read-out: percent inhibition at 10 μM (given for EC50 of >10 μM)
Outline: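 LL29 IPF-patient lung fibroblasts in 1% FBS F12 were given compounds (11-point, 10 μM to […], 0.1% DMSO) plus TGF-β1 20 ng/mL for 4 days at 37 °C. αSMA-positive fraction of live (SYTOX-negative) cells was imaged and normalized to TGF-β1/DMSO wells. EC50 by non-linear regression, or % inhibition at 10 μM if >10 μM.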

[2] = tested on: Wnt activity (Sp5-Luc reporter, SW480 colon carcinoma cells); assay: Screening assay for Wnt activity: Sp5-Luc reporter gene assay in SW480 cells; format: cell-based; conditions: Homo sapiens, overnight incubation, 10-point dose-response from 10 μM
Outline: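 SW480 cells stably carrying Sp5-Luc reporter (eight TCF/LEF sites) plated at 4,000/well in 1% FBS medium with compound (10-point 1:3 series from 10 μM, 0.1% DMSO) overnight at 37 °C. BrightGlo luminescence normalized to DMSO; EC50 by four-parameter fit, else % inhibition at 10 μM.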

| Structure (SMILES) | EC50 [2] [nM] | EC50 [1] [nM] | inhibition at 10 µM [1] [%] |
| --- | --- | --- | --- |
| Fc1cccc(-c2ccnc3[nH]c(-c4n[nH]c5ccc(C6=CCNCC6)nc45)nc23)c1 [Compound 506, 3-(7-(3-fluorophenyl)-3H-imidazo[4,5-b]pyridin-2-yl)-5-(1,2,3,6-tetrahydropyridin-4-yl)-1H-pyrazolo[4,3-b]pyridine] | > 10000 | > 10000 | 0 |
| Cc1ccncc1-c1ccc2[nH]nc(-c3nc4c(-c5ccsc5)ccnc4[nH]3)c2n1 [Compound 285, 5-(4-methylpyridin-3-yl)-3-(7-(thiophen-3-yl)-3H-imidazo[4,5-b]pyridin-2-yl)-1H-pyrazolo[4,3-b]pyridine] | 865 | 2050 | – |
| COc1cncc(-c2ccc3[nH]nc(-c4nc5c(-c6cccc(F)c6)ccnc5[nH]4)c3n2)c1 [Compound 516, 3-(7-(3-fluorophenyl)-3H-imidazo[4,5-b]pyridin-2-yl)-5-(5-methoxypyridin-3-yl)-1H-pyrazolo[4,3-b]pyridine] | 338 | 1580 | – |
| Oc1cncc(-c2ccc3[nH]nc(-c4nc5c(-c6cccc(F)c6)ccnc5[nH]4)c3n2)c1 [Compound 517, 5-(3-(7-(3-fluorophenyl)-3H-imidazo[4,5-b]pyridin-2-yl)-1H-pyrazolo[4,3-b]pyridin-5-yl)pyridin-3-ol] | 423 | 1150 | – |
| CC(C)Nc1cncc(-c2ccc3[nH]nc(-c4nc5c(-c6ccoc6)ccnc5[nH]4)c3n2)c1 [Compound 320, 5-(3-(7-(furan-3-yl)-3H-imidazo[4,5-b]pyridin-2-yl)-1H-pyrazolo[4,3-b]pyridin-5-yl)-N-isopropylpyridin-3-amine] | 341 | 277 | – |
| CC(C)CC(=O)Nc1cncc(-c2ccc3[nH]nc(-c4nc5c(-c6cccc(F)c6)ccnc5[nH]4)c3n2)c1 [Compound 2, N-(5-(3-(7-(3-fluorophenyl)-3H-imidazo[4,5-b]pyridin-2-yl)-1H-pyrazolo [4,3-b]pyridin-5-yl)pyridin-3-yl)-3-methylbutanamide] | 495 | 292 | – |
| FC1(F)CCN(Cc2cncc(-c3ccc4[nH]nc(-c5nc6c(-c7ccsc7)ccnc6[nH]5)c4n3)c2)C1 [Compound 306, 5-(5-((3,3-difluoropyrrolidin-1-yl)methyl)pyridin-3-yl)-3-(7-(thiophen-3-yl)-3H-imidazo[4,5-b]pyridin-2-yl)-1H-pyrazolo[4,3-b]pyridine] | 533 | 165 | – |
| Cc1ccc(-c2ccnc3[nH]c(-c4n[nH]c5ccc(-c6cncc(NC(=O)C(C)C)c6)nc45)nc23)s1 [Compound 401, N-(5-(3-(7-(5-methylthiophen-2-yl)-3H-imidazo[4,5-b]pyridin-2-yl)-1H-pyrazolo[4,3-b]pyridin-5-yl)pyridin-3-yl)isobutyramide] | 565 | 158 | – |
| COc1cccc(-c2ccnc3[nH]c(-c4n[nH]c5ccc(-c6cncc(NC(=O)Cc7ccccc7)c6)nc45)nc23)c1 [Compound 1000, N-(5-(3-(7-(3-methoxyphenyl)-3H-imidazo[4,5-b]pyridin-2-yl)-1H-pyrazolo[4,3-b]pyridin-5-yl)pyridin-3-yl)-2-phenylacetamide] | 2800 | > 10000 | 23.4 |
| Cc1ccncc1-c1ccc2[nH]nc(-c3nc4c(-c5cc(F)cc(CNS(C)(=O)=O)c5)ccnc4[nH]3)c2n1 [Compound 481, N-(3-fluoro-5-(2-(5-(4-methylpyridin-3-yl)-1H-pyrazolo[4,3-b]pyridin-3-yl)-3H-imidazo[4,5-b]pyridin-7-yl)benzyl)methanesulfonamide] | 1250 | 5180 | – |
| Fc1cccc(-c2ccnc3[nH]c(-c4n[nH]c5ccc(-c6cncc(OCCN7CCCC7)c6)nc45)nc23)c1 [Compound 514, 3-(7-(3-Fluorophenyl)-3H-imidazo[4,5-b]pyridin-2-yl)-5-(5-(2-(pyrrolidin-1-yl)ethoxy)pyridin-3-yl)-1H-pyrazolo[4,3-b]pyridine] | 4110 | > 10000 | 0 |
| NC1CN(c2cncc(-c3ccc4[nH]nc(-c5nc6c(-c7cccc(F)c7)ccnc6[nH]5)c4n3)n2)C1 [Compound 510, 1-(6-(3-(7-(3-fluorophenyl)-3H-imidazo[4,5-b]pyridin-2-yl)-1H-pyrazolo[4,3-b]pyridin-5-yl)pyrazin-2-yl)azetidin-3-amine] | 3710 | > 10000 | 0 |

More lines, in order of falling EC50 [2], values ahead:

| EC50 [2] [nM] | Structure (SMILES) | EC50 [1] [nM] | inhibition at 10 µM [1] [%] |
| --- | --- | --- | --- |
| 7700 | Clc1ccc(-c2ccnc3[nH]c(-c4n[nH]c5ccc(-c6cncc(CN7CCCC7)c6)nc45)nc23)s1 [Compound 1049, 3-(7-(5-chlorothiophen-2-yl)-3H-imidazo[4,5-b]pyridin-2-yl)-5-(5-(pyrrolidin-1-ylmethyl)pyridin-3-yl)-1H-pyrazolo[4,3-b]pyridine] | 681 | – |
| 3830 | CCNCc1cncc(-c2ccc3[nH]nc(-c4nc5c(-c6ccoc6)ccnc5[nH]4)c3n2)c1 [Compound 314, N-((5-(3-(7-(furan-3-yl)-3H-imidazo[4,5-b]pyridin-2-yl)-1H-pyrazolo[4,3-b]pyridin-5-yl)pyridin-3-yl)methyl)ethanamine] | > 10000 | 0 |
| 3730 | Fc1ccc(-c2ccnc3[nH]c(-c4n[nH]c5ccc(-c6cncc(CN7CCCC7)c6)nc45)nc23)cc1 [Compound 42, 3-(7-(4-fluorophenyl)-3H-imidazo[4,5-b]pyridin-2-yl)-5-(5-(pyrrolidin-1-ylmethyl)pyridin-3-yl)-1H-pyrazolo[4,3-b]pyridine] | 1850 | – |
| 3580 | CS(=O)(=O)NCc1cc(F)cc(-c2ccnc3[nH]c(-c4n[nH]c5ccc(-c6cncc(CNCc7ccccc7)c6)nc45)nc23)c1 [Compound 500, N-(3-(2-(5-(5-((Benzylamino)methyl)pyridin-3-yl)-1H-pyrazolo[4,3-b]pyridin-3-yl)-3H-imidazo[4,5-b]pyridin-7-yl)-5-fluorobenzyl)methanesulfonamide] | 9260 | – |
| 2880 | CN(C)Cc1cncc(-c2ccc3[nH]nc(-c4nc5c(-c6cccc(F)c6)ccnc5[nH]4)c3n2)c1 [Compound 13, 1-(5-(3-(7-(3-fluorophenyl)-3H-imidazo[4,5-b]pyridin-2-yl)-1H-pyrazolo [4,3-b]pyridin-5-yl)pyridin-3-yl)-N,N-dimethylmethanamine] | 1440 | – |
| 2840 | CN(C)CCOc1cncc(-c2ccc3[nH]nc(-c4nc5c(-c6cccc(F)c6)ccnc5[nH]4)c3n2)c1 [Compound 515, 2-((5-(3-(7-(3-fluorophenyl)-3H-imidazo[4,5-b]pyridin-2-yl)-1H-pyrazolo[4,3-b]pyridin-5-yl)pyridin-3-yl)oxy)-N,N-dimethylethan-1-amine] | 2610 | – |
| 2300 | NC1CN(c2cncc(-c3ccc4[nH]nc(-c5nc6c(-c7ccc(Cl)s7)ccnc6[nH]5)c4n3)n2)C1 [Compound 1068, 1-(6-(3-(7-(5-Chlorothiophen-2-yl)-3H-imidazo[4,5-b]pyridin-2-yl)-1H-pyrazolo[4,3-b]pyridin-5-yl)pyrazin-2-yl)azetidin-3-amine] | 938 | – |
| 1960 | CC(C)Nc1cncc(-c2ccc3[nH]nc(-c4nc5c(-c6cccnc6)ccnc5[nH]4)c3n2)c1 [Compound 96, N-isopropyl-5-(3-(7-(pyridin-3-yl)-3H-imidazo[4,5-b]pyridin-2-yl)-1H-pyrazolo[4,3-b]pyridin-5-yl)pyridin-3-amine] | 1760 | – |
| 1550 | COc1cccc(-c2ccnc3[nH]c(-c4n[nH]c5ccc(-c6cncc(NC(=O)CC(C)(C)C)c6)nc45)nc23)c1 [Compound 1006, N-(5-(3-(7-(3-methoxyphenyl)-3H-imidazo[4,5-b]pyridin-2-yl)-1H-pyrazolo[4,3-b]pyridin-5-yl)pyridin-3-yl)-3,3-dimethylbutanamide] | 2490 | – |
| 1490 | CC(C)CC(=O)Nc1cncc(-c2ccc3[nH]nc(-c4nc5c(-c6ccc(Cl)s6)ccnc5[nH]4)c3n2)c1 [Compound 1037, N-(5-(3-(7-(5-chlorothiophen-2-yl)-3H-imidazo[4,5-b]pyridin-2-yl)-1H-pyrazolo [4,3-b]pyridin-5-yl)pyridin-3-yl)-3-methylbutanamide] | 511 | – |
| 929 | CN(C)c1cncc(-c2ccc3[nH]nc(-c4nc5c(-c6cccc(F)c6)ccnc5[nH]4)c3n2)c1 [Compound 7, 5-(3-(7-(3-fluorophenyl)-3H-imidazo[4,5-b]pyridin-2-yl)-1H-pyrazolo[4,3-b]pyridin-5-yl)-N,N-dimethylpyridin-3-amine] | 2170 | – |
| 908 | O=C(Nc1cncc(-c2ccc3[nH]nc(-c4nc5c(-c6ccc(F)cc6)ccnc5[nH]4)c3n2)c1)C1CCC1 [Compound 49, N-(5-(3-(7-(4-fluorophenyl)-3H-imidazo[4,5-b]pyridin-2-yl)-1H-pyrazolo [4,3-b]pyridin-5-yl)pyridin-3-yl)cyclobutanecarboxamide] | 1370 | – |
| 670 | Fc1ccccc1-c1ccnc2[nH]c(-c3n[nH]c4ccc(-c5ccccn5)nc34)nc12 [Compound 84, 3-(7-(2-Fluorophenyl)-3H-imidazo[4,5-b]pyridin-2-yl)-5-(pyridin-2-yl)-1H-pyrazolo[4,3-b]pyridine] | > 10000 | 29.4 |
